Measured values: ChEMBL document CHEMBL2321847, “Ligand-based discovery of N-(1,3-dioxo-1H,3H-benzo[de]isochromen-5-yl)-carboxamide and sulfonamide derivatives as thymidylate synthase A inhibitors” (Bioorg Med Chem Lett, 2013)

What was measured:
Thymidylate synthase [1] = target: Thymidylate synthase (Escherichia coli K-12, UniProt P0A884); assay: Inhibition of Escherichia coli thymidylate synthase A
Thymidylate synthase [2] = target: Thymidylate synthase (Homo sapiens, UniProt P04818)
Description: Inhibition of human thymidylate synthase A

Dihydrofolate reductase = target: T1, Dihydrofolate reductase (Homo sapiens, UniProt P00374); assay: Inhibition of human DHFR
T1 sequence (P00374 whole entry): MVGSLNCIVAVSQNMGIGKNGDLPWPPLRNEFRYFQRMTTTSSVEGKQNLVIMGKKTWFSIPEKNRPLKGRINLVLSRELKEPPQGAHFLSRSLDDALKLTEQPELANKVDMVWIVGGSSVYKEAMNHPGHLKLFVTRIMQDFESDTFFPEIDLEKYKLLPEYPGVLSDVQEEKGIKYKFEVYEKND

Sequence of Thymidylate synthase (Homo sapiens, UniProt P04818) (P04818 whole entry): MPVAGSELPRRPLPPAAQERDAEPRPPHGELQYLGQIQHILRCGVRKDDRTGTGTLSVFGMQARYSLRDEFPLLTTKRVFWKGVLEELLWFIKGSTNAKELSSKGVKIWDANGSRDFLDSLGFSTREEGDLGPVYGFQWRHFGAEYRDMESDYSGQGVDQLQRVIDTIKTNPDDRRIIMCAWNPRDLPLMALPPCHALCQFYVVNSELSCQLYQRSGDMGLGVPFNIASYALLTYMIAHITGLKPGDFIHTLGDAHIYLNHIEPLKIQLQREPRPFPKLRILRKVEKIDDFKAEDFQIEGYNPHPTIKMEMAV
Sequence of Thymidylate synthase (Escherichia coli K-12, UniProt P0A884) (P0A884 whole entry): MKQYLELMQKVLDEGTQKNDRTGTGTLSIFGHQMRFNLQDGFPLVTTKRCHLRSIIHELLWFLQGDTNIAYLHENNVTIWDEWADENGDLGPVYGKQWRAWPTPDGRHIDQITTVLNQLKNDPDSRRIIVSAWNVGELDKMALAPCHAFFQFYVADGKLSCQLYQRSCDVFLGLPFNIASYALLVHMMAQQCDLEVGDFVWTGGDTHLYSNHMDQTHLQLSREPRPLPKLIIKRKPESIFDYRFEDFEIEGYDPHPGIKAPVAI

O=C1OCc2cccc3cccc1c23
Ki (Thymidylate synthase [1]): > 304 µM
Ki (Thymidylate synthase [2]): 47 µM

N#CC(C#N)=c1c(=O)c2cccc3cccc1c32
Ki (Thymidylate synthase [1]): > 294 µM
Ki (Thymidylate synthase [2]): > 309 µM

Cn1cc(-c2ccc(S(=O)(=O)Nc3cc4c5c(cccc5c3)C(=O)OC4=O)s2)cc1C(F)(F)F
Ki (Thymidylate synthase [1]): 1.9 µM

O=C1Oc2cccc3cccc1c23
Ki (Thymidylate synthase [1]): > 265 µM
Ki (Thymidylate synthase [2]): 4.2 µM

O=C1Sc2cccc3cccc1c23
Ki (Thymidylate synthase [1]): > 196 µM
Ki (Thymidylate synthase [2]): 3.1 µM

O=C1C(=O)c2ccc(Oc3ccc([N+](=O)[O-])cc3)c3cccc1c23
Ki (Thymidylate synthase [1]): > 103 µM
Ki (Thymidylate synthase [2]): > 98 µM

O=C1/C(=N/c2ccccc2)c2cccc3cccc1c23
Ki (Thymidylate synthase [1]): > 294 µM
Ki (Thymidylate synthase [2]): > 309 µM

Cc1ccc2c3c(cccc13)C(=O)CC2
Ki (Thymidylate synthase [1]): > 294 µM
Ki (Thymidylate synthase [2]): 3.1 µM

CC1(C)C(=O)c2cccc3cccc(c23)C1=O
Ki (Thymidylate synthase [1]): > 588 µM
Ki (Thymidylate synthase [2]): 33 µM

O=C1OC(c2ccccc2)(c2ccccc2)c2cccc3cccc1c23
Ki (Thymidylate synthase [1]): > 294 µM
Ki (Thymidylate synthase [2]): > 309 µM

O=C1OC(=O)c2ccc(Cl)c3cccc1c23
Ki (Thymidylate synthase [1]): 105 µM

O=C(O)c1ccc2c3c(cccc13)C(=O)OC2=O
Ki (Thymidylate synthase [1]): 26.8 µM

O=C1OC(=O)c2ccc(S(=O)(=O)O)c3cccc1c23
Ki (Thymidylate synthase [1]): > 784 µM
Ki (Thymidylate synthase [2]): > 824 µM

O=C1OC(=O)c2ccc(SCCO)c3cccc1c23
Ki (Thymidylate synthase [1]): > 451 µM
Ki (Thymidylate synthase [2]): > 474 µM

CCOC(=O)CSc1ccc2c3c(cccc13)C(=O)OC2=O
Ki (Thymidylate synthase [1]): > 588 µM

Nc1ccc2c3c(cccc13)C(=O)OC2=O
Ki (Thymidylate synthase [1]): > 152 µM
Ki (Thymidylate synthase [2]): > 160 µM

O=C1OC(=O)c2cc([N+](=O)[O-])cc3cccc1c23
Ki (Thymidylate synthase [1]): > 196 µM
Ki (Thymidylate synthase [2]): > 206 µM

Nc1cc2c3c(cccc3c1)C(=O)OC2=O
Ki (Thymidylate synthase [1]): 6.8 µM
Ki (Thymidylate synthase [2]): > 412 µM

O=C(Nc1cc2c3c(cccc3c1)C(=O)OC2=O)c1cccc([N+](=O)[O-])c1
Ki (Dihydrofolate reductase): > 110 µM
Ki (Thymidylate synthase [1]): 7.3 µM

O=C(Nc1cc2c3c(cccc3c1)C(=O)OC2=O)c1ccc([N+](=O)[O-])cc1
Ki (Thymidylate synthase [1]): 17 µM

Nc1ccc(C(=O)Nc2cc3c4c(cccc4c2)C(=O)OC3=O)cc1
Ki (Thymidylate synthase [1]): 21.6 µM
Ki (Thymidylate synthase [2]): > 823 µM

O=C(Nc1cc2c3c(cccc3c1)C(=O)OC2=O)c1ccc(C(F)(F)F)cc1
Ki (Thymidylate synthase [1]): 6.4 µM
Ki (Thymidylate synthase [2]): > 206 µM

O=C(Nc1cc2c3c(cccc3c1)C(=O)OC2=O)c1cccc(C(F)(F)F)c1
Ki (Thymidylate synthase [1]): 4.4 µM

O=C(Nc1cc2c3c(cccc3c1)C(=O)OC2=O)c1ccc(Cl)c([N+](=O)[O-])c1
Ki (Thymidylate synthase [1]): 4 µM

O=C(Nc1cc2c3c(cccc3c1)C(=O)OC2=O)c1ccc([N+](=O)[O-])o1
Ki (Thymidylate synthase [1]): 6.7 µM

O=C(Cc1cccs1)Nc1cc2c3c(cccc3c1)C(=O)OC2=O
Ki (Thymidylate synthase [1]): 5.3 µM

O=C(Nc1cc2c3c(cccc3c1)C(=O)OC2=O)c1sc2ccccc2c1Cl
Ki (Dihydrofolate reductase): > 55 µM
Ki (Thymidylate synthase [1]): 6.5 µM
Ki (Thymidylate synthase [2]): > 411 µM

COC(=O)CCC(=O)Nc1cc2c3c(cccc3c1)C(=O)OC2=O
Ki (Thymidylate synthase [1]): 7.1 µM

O=C1OC(=O)c2cc(NS(=O)(=O)c3ccccc3)cc3cccc1c23
Ki (Thymidylate synthase [1]): 4.2 µM

O=C1OC(=O)c2cc(NS(=O)(=O)c3cccc([N+](=O)[O-])c3)cc3cccc1c23
Ki (Thymidylate synthase [1]): 2.1 µM

O=C1OC(=O)c2cc(NS(=O)(=O)c3ccc([N+](=O)[O-])cc3)cc3cccc1c23
Ki (Thymidylate synthase [1]): 1.2 µM

O=C1OC(=O)c2cc(NS(=O)(=O)c3cccs3)cc3cccc1c23
Ki (Thymidylate synthase [1]): 2.2 µM

O=C1OC(=O)c2cc(NS(=O)(=O)c3ccc(C(F)(F)F)cc3[N+](=O)[O-])cc3cccc1c23
Ki (Thymidylate synthase [1]): 1.3 µM

O=C1OC(=O)c2cc(NS(=O)(=O)c3ccc(S(=O)(=O)c4ccccc4)s3)cc3cccc1c23
Ki (Thymidylate synthase [1]): 1.2 µM

O=C1OC(=O)c2cc(NS(=O)(=O)c3cc(Cl)sc3Cl)cc3cccc1c23
Ki (Thymidylate synthase [1]): 4.6 µM

O=C1OC(=O)c2cc(NS(=O)(=O)c3cccc4ccccc34)cc3cccc1c23
Ki (Thymidylate synthase [1]): 1.1 µM

O=C1OC(=O)c2cc(NS(=O)(=O)c3cccc4cccnc34)cc3cccc1c23
Ki (Thymidylate synthase [1]): 2.9 µM

O=C1OC(=O)c2cc(NS(=O)(=O)c3cccc4nsnc34)cc3cccc1c23
Ki (Thymidylate synthase [1]): 0.9 µM

O=C(Nc1cc2c3c(cccc3c1)C(=O)OC2=O)c1ccc2c(c1)OCO2
Ki (Thymidylate synthase [1]): 7.4 µM

O=C(/C=C/c1ccccc1Cl)Nc1cc2c3c(cccc3c1)C(=O)OC2=O
Ki (Thymidylate synthase [1]): 32.3 µM
Ki (Thymidylate synthase [2]): > 616 µM

O=C(/C=C/c1cccc(C(F)(F)F)c1)Nc1cc2c3c(cccc3c1)C(=O)OC2=O
Ki (Thymidylate synthase [1]): 10.6 µM
Ki (Thymidylate synthase [2]): > 206 µM

Cc1onc(-c2ccccc2Cl)c1C(=O)Nc1cc2c3c(cccc3c1)C(=O)OC2=O
Ki (Thymidylate synthase [1]): 44.7 µM
Ki (Thymidylate synthase [2]): > 826 µM

Cc1onc(-c2c(F)cccc2Cl)c1C(=O)Nc1cc2c3c(cccc3c1)C(=O)OC2=O
Ki (Dihydrofolate reductase): > 332 µM
Ki (Thymidylate synthase [1]): 6.1 µM

O=C1OC(=O)c2cc(NS(=O)(=O)/C=C/c3ccccc3)cc3cccc1c23
Ki (Thymidylate synthase [1]): 0.3 µM

O=C1OC(=O)c2cccc3cccc1c23 [1,8-NAPHTHALIC ANHYDRIDE]
Ki (Thymidylate synthase [1]): > 294 µM
